Source: PMC3344887 (PLoS ONE, 2012)
Read-outs that look alike come from different tables or passages of the source.

Key:
Format in all cases: in vivo, humans
healthy subjects [1] = assay: Soft-link PK-PD model, MDMA plasma concentration vs VAS any drug effect; settings: for EC50: Homo sapiens
Excerpt: PK-PD modeling: First, a soft-link PK-PD model was used to evaluate the in vivo relationship between the concentration of MDMA and subjective effect of the drug. The change in the VAS for any drug effect was used as the pharmacodynamic measure in each individual. Because we observed clockwise hysteresis in the effect-concentration relationship over time, we used PK-PD data pairs within the ascending part of the individual curves up to Emax or Cmax. Our estimate of Emax, which should represent the maximal response portion of the dose-response curve, may already have been affected by tolerance. […] Based on the good brain penetration of MDMA and absence of a time lag, we assumed rapid equilibration between plasma and the central compartment (brain). […] The sigmoid Emax model provided a better fit than a simple Emax or linear model. Data pooling was used because only few data pairs were available per subject. Non-linear regression was used to obtain parameter estimates. Second, we also used a hard-link PK-PD model to predict in vivo PD effects based on the in vitro concentration-response data linked to the observed individual in vivo PK. […] Similar to the soft-link PK-PD model, a single compartment PK model (plasma = brain concentration) was used, and only ascending PK or PD values were included. The in vivo data were linked to the PK of each individual, and a mean predicted effect-time curve was established.

healthy subjects [2] = assay: Visual Analog Scales, subjective drug effects, clinical study
Protocol: (§1) The washout periods between the sessions were at least 10 days long.
(§2) Identical placebo (lactose) capsules were prepared. […] Drugs were administered without food.
(§3) The psychometric measures included Visual Analog Scales (VAS), [10], the Adjective Mood Rating Scale (AMRS), and 5-Dimensions of Altered States of Consciousness (5D-ASC), [23]. […] The VASs were presented as 100 mm horizontal lines marked “not at all" on the left and “extremely" on the right. The VASs for “closeness to others," “open," and “talkative" were bidirectional (±50 mm). The VASs were administered 4 h before and 0, 0.33, 1, 1.5, 2, 2.5, 3, 3.5, 4, and 5 h after MDMA or placebo administration. […] The AMRS contains subscales for activity, extroversion and introversion, well-being, emotional excitation, anxiety-depression, and dreaminess. The 5D-ASC rating scale measures alterations in mood, perception, experience of self in relation to the environment, and thought disorder. The 5D-ASC rating scale comprises five subscales or dimensions and 11 lower-order scales. The 5D-ASC dimension “oceanic boundlessness" (OB, 27 items) measures derealization and depersonalization associated with positive emotional states, ranging from heightened mood to euphoric exaltation. […] The global ASC score was determined by adding the OB, AED, and VR scores. The 5D-ASC scale was administered 4 h after MDMA or placebo administration.
Clinical data values were transformed to differences from baseline. Peak effects (Emax) were determined for repeated measures. Emax values were compared using General Linear Models repeated-measures analysis of variance, with drug as within-subject factor, using Statistica 6.0 software (StatSoft, Tulsa, OK). Tukey post hoc comparisons were performed based on significant main effects of treatment. Additional analyses of variance were performed, with period as factor to exclude period effects. Correlation analyses were performed using Pearson’s correlations. The criterion for significance was p<0.05. Mean arterial pressure (MAP) was calculated from diastolic blood pressure and systolic blood pressure using the following formula: MAP = DBP+(SBP - DBP)/3.

healthy subjects [3] = assay: Circulating plasma catecholamines, clinical study; settings: peak change from baseline, mean±SEM, 16 subjects
Protocol: as §1, §2
Plasma concentrations of copeptin were also determined in this study as reported elsewhere. […] No hydrolysis was performed. Thus, the values for HMMA represent the drug concentrations of the non-conjugated metabolite. All blood samples were collected on ice and centrifuged within 10 min at 4°C. The plasma was then stored at –20°C until the analysis.

healthy subjects [4] = assay: 5-Dimensions of Altered States of Consciousness (5D-ASC), clinical study; settings: placebo-placebo vs placebo-MDMA
Protocol: as §1, §2, §3

[5] = peak change from baseline, mean±SEM, 16 subjects

CNC(C)Cc1ccc2c(c1)OCO2 (centres unmarked) [MDMA, 3,4-methylenedioxymethamphetamine]
EC50 (healthy subjects [1]; second statement, in brackets, read-out: EC50 of the PK-PD curve in humans): 0.38 µM
EC50 (healthy subjects [1]; second statement, read-out: EC50 of the PK-PD curve in humans): 0.074 mg/L
EC50 (healthy subjects [1]; sigmoid Emax model, in brackets, read-out: EC50 of in vivo PK-PD relationship (MDMA plasma concentration)): 0.48 µM
EC50 (healthy subjects [1]; sigmoid Emax model, pooled data, read-out: EC50 of in vivo PK-PD relationship (MDMA plasma concentration)): 0.0925 ± 0.0076 mg/L
Emax of in vivo PK-PD relationship (any drug effect) (healthy subjects [1]; sigmoid Emax model, pooled data): 93.8±7.3%
Observed time to half-maximal subjective drug effect (healthy subjects [2]; after drug administration): 44 ± 4 min
VAS Any drug effect, Emax (healthy subjects [2]; [5]): 86.69±3.57
VAS Closeness, Emax (healthy subjects [2]; [5]): 27.31±3.87
VAS Drug high, Emax (healthy subjects [2]; [5]): 87.81±4.85
VAS Drug liking, Emax (healthy subjects [2]; [5]): 90.69±4.82
VAS Good drug effect, Emax (healthy subjects [2]; [5]): 89.38±4.67
VAS Open, Emax (healthy subjects [2]; [5]): 32.16±4.29
VAS Stimulated, Emax (healthy subjects [2]; [5]): 76.31±6.84
VAS Talkative, Emax (healthy subjects [2]; [5]): 28.81±5.12
Circulating Epinephrine, Emax (healthy subjects [3]): 0.50 ± 0.12 nM
Circulating Norepinephrine, Emax (healthy subjects [3]): 0.44 ± 0.12 nM
Effect on ASC sum score, OB, AED and VR dimensions (healthy subjects [4]): significantly increased
